Data on three compounds can be found in patent US20220282217A1, “COMPOSITIONS AND METHODS FOR PREPARING T CELL COMPOSITIONS AND USES THEREOF” (priority 2019, published 2022).

pKd: −log10 of the molar value. Where a SMILES comes first, the peptide text is derived from it.

The target of test [1] is HLA-A02.01 (Homo sapiens, UniProt P04439, D140Y/D185E/D98H/E176V/E277Q/G131W/G231S/I119V/I121R/I166T/I218V/L300P/L318F/N151K/N90K/P208A/P217A/Q86G/Q94H/R138H/R169H/T345S). Kind of test: Class I MHC peptide binding affinity (displacement of radiolabeled reference peptide). The method, boiled down:
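MHC class I complexes were loaded with a radiolabeled reference peptide, then exposed to test peptides over a range of concentrations for 2 days. Reference peptide still bound to the complexes was quantified by size-exclusion gel filtration.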

Test [2] has as its target Class I MHC. Kind of test: Class I MHC peptide binding affinity, any other or unspecified HLA allele named in the row. The conditions noted are these: EGFR T790M peptides; HLA allele B08.02. Details: species or system human.
Test [3] deals with T1, HLA-A02.01 (Homo sapiens, UniProt P04439, D140Y/D185E/D98H/E176V/E277Q/G131W/G231S/I119V/I121R/I166T/I218V/N151K/N90K/P208A/P217A/Q86G/Q94H/R138H/R169H).
T1 construct: made in house; host or cells: E. coli
Nature of the test: Class I MHC peptide binding stability (pMHC-I dissociation, 125I-labeled light chain).

Test [4] relates to HLA-A24.02. Described as above. Set-up: species or system human.
Test [5] has as its target HLA-A03.01 (Homo sapiens, UniProt P04439). Nature of the test: Class I MHC peptide binding affinity (displacement of radiolabeled reference peptide). The conditions noted are these: allele A03.01; read-out: Observed Affinity (IC50; (nM)).
Test [6] addresses 293T cells transduced with GATA3 neoORF, expressing the HLA of interest (Homo sapiens, UniProt P04439). Nature of the test: Presentation of GATA3 neoantigens: HLA-eluted peptides by targeted MS/MS (PRM) (Table 14). Type of test: cell-based. The conditions noted are these: GATA3 neoORF transduced 293T cells expressing HLA-A*03:01 protein. Here is the method: (§1) To assess whether antigens could be processed and presented from the larger polypeptide context, peptides eluted from HLA molecules isolated from cells expressing the genes of interest were analyzed by tandem mass spectrometry (MS/MS).
(§2) Between 50 and 700 million of the transduced cells expressing peptides encoded by the GATA3 neoORF sequence were cultured and peptides were eluted from HLA-peptide complexes using an acid wash. Eluted peptides were then analyzed by targeted MS/MS using PRM. Spectral comparison between peptides derived from GATA3 neoORF and corresponding synthetic peptides were performed to confirm each detection.

In test [7] the test system is 293T cells transduced with GATA3 neoORF, expressing the HLA of interest. The test is described as above. Type of test: cell-based, human. The conditions noted are these: GATA3 neoORF transduced 293T cells expressing HLA-A*11:01 protein. Here is the method: as §1, §2
For test [8], the system named is CD8+ T cells. Kind of test: Ex vivo induction of antigen-specific CD8 T cells (FLT3L-treated PBMCs), MHC tetramer/multimer readout. In kind it is cell-based, human. Details: key to Epitope prefixed with '*': positive CD8+ T cell response: The epitopes that are prefixed with ‘*’, were shown to induce positive CD8+ T cell response in either one or both the donors; key to Immunogenicity (#donors/2): positive CD8+ T cell response in either one or both the donors (marked as 1 or 2 in column 6 respectively); positive CD8+ T cell response in either one or both the donors (marked as 1 or 2 in column 6 respectively). As to conditions: HLA-A02:01. The method, then:
Step 1: Plate 5 million PBMCs (or cells of interest) in each well of 24 well plate with FLT3L in 2 mL AIM V media Step 2: Peptide loading and maturation—in AIMV 1. Mix peptide pool of interest (except for no peptide condition) with PBMCs (or cells of interest) in respective wells.
3. Mix Maturation cocktail (including TNF-α, IL-1β, PGE1, and IL-7) to each well after incubation. Step 3: Add human serum to each well at a final concentration of 10% by volume and mix. Step 4: Replace the media with fresh RPMI+10% HS media supplemented with IL7+IL15. Step 5: Replace the media with fresh 20/80 media supplemented with IL7+IL15 during the period of incubation every 1-6 days. Step 6: Plate 5 million PBMCs (or cells of interest) in each well of new 6-well plate with FLT3L in 2 ml AIM V media Step 7: Peptide loading and maturation for re-stimulation—(new plates) 1. Mix peptide pool of interest (except for no peptide condition) with PBMCs (or cells of interest) in respective wells
1. […]
MHC tetramers are purchased or manufactured on-site according to methods known by one of ordinary skill, and are used to measure peptide-specific T cell expansion in the immunogenicity assays. […] Cells are acquired on a LSR Fortessa (Becton Dickinson) instrument, and are analyzed by use of FlowJo software (Becton Dickinson). […]

Regarding `CC[C@H](C)[C@H](NC(=O)[C@H](CC(C)C)NC(=O)[C@@H](N)CCC(N)=O)C(=O)N[C@@H](CCSC)C(=O)N[C@@H](CCC(N)=O)C(=O)N[C@@H](CC(C)C)C(=O)N[C@@H](CCSC)C(=O)N1CCC[C@H]1C(=O)N[C@@H](Cc1ccccc1)C(=O)O`, the pKd is 6.71 in test [1] (EGFR T790M peptides, HLA allele A02.01, read-out: Affinity) and 5.25 in test [2]. Further, in test [1] (allele A02.01, read-out: Observed Affinity (IC50, (nM))), the IC50 came out at 227 nM. In addition, the “Stability (half-life (hr.))” value amounted to 20.44 min in test [3] (EGFR T790M peptides, HLA allele A02.01) and 22.12 min in test [4] (EGFR T790M peptides, HLA allele A24.02). Also, the “Stability (T1/2 (h))” value is 0.3 h in test [3] (allele A02.01) and 0.4 h in test [4] (allele A24.02).
Turning to `CC[C@H](C)[C@H](NC(=O)[C@@H](N)CCCCN)C(=O)N[C@@H](CCSC)C(=O)N[C@@H](Cc1ccccc1)C(=O)N[C@@H](C)C(=O)N[C@H](C(=O)N[C@@H](CC(C)C)C(=O)N[C@@H](CCC(N)=O)C(=O)N[C@@H](CCCNC(=N)N)C(=O)O)[C@@H](C)O` (H-KIMFATLQR-OH; N-terminus and C-terminus assumed), the half-maximal inhibitory concentration (IC50) in test [5] was found to be 2.5 nM. Besides, the “detected by mass spectrometry (peptide eluted from HLA-peptide complexes)” value in test [6] and in test [7] was “detected” in each case.
Regarding VLDCCISLL, the “Epitope prefixed with '*': positive CD8+ T cell response” value in test [8] (in either one or both the donors) is reported as “*VLDCCISLL”. Moreover, the “Immunogenicity (#donors/2)” value in test [8] (positive CD8+ T cell response, number of donors out of 2) turned out to be 1.
